Experimental findings from patent publication US8163909B2, “Substituted hydroxyethyl amine compounds as beta-secretase modulators and methods of use” (Amgen Inc., priority 2007, dated 2012) are described below.

Structures are written as SMILES. Where two headings read alike, the source gives them in different places.

The target in data set [1] is Beta Secretase enzyme (BACE) (Homo sapiens, UniProt P56817). Briefly: In vitro enzymatic BACE FRET (fluorescence resonance energy transfer) assay.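 Further: fluorescence read after 1 h with 50 nM quenched peptide substrate spanning the BACE cleavage site, in pH 4.2 acetate buffer containing 10% DMSO and nonionic detergent.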 Format: biochemical.
Beta Secretase enzyme (BACE), sequence (P56817 46-501): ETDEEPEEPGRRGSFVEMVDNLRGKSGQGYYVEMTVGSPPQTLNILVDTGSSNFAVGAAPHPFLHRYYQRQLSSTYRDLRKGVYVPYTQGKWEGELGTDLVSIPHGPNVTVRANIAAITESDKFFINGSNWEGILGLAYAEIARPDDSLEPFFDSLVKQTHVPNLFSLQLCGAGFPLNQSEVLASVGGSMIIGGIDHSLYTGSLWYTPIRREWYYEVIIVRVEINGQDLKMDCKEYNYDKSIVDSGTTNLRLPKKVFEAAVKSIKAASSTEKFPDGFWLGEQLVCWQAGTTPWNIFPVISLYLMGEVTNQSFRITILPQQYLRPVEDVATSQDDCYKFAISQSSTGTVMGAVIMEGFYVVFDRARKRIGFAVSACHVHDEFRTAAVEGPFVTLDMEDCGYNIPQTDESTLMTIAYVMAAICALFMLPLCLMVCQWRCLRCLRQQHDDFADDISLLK
Data set [2] deals with Aβ40 in conditioned medium of cells stably expressing Amyloid Precursor Protein (APP). In words: In vitro BACE cell-based assay (Aβ40 in conditioned medium, sandwich ELISA). (ELISA stands for enzyme-linked immunosorbent assay.)
Data set [3] is described as follows: Microsomal stability assay, rat liver microsomes.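 Further: rat liver microsomes (0.25 mg/mL) with about 1 µM compound plus 1 mM NADPH, pH 7.4, 37 °C for 30 min, parent left measured by LC-MS/MS against 0 min.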 The settings on record: rat liver microsomal data. On the technique in general: Liver microsomes are vesicles of endoplasmic reticulum, rich in cytochrome P450 enzymes.
For data set [4], the target named is CYP2D6 (Homo sapiens, UniProt P10635). In words: CYP2D6 inhibition assay (bufuralol, pooled human liver microsomes). The conditions noted are these: 2D6 IC50, CYP enzyme inhibition.
CYP2D6, sequence (P10635 whole entry): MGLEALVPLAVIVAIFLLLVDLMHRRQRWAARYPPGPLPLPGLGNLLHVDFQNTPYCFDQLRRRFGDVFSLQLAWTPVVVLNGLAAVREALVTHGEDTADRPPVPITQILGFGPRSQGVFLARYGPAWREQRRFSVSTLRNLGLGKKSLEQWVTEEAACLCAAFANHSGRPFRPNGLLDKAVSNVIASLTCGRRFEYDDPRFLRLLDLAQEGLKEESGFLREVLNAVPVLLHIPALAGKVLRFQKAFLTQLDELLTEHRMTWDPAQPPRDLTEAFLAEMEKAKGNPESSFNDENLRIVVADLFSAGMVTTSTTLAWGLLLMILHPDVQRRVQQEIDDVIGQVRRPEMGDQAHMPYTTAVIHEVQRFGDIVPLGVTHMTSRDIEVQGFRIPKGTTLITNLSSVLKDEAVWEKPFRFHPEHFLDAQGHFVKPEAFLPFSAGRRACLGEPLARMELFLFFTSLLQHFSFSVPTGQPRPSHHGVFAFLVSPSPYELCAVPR
Where [5] appears, read: BACE enzyme assay, IC50's in uM, read-out: BACE1 FRET assay.
Setting [6] is: BACE enzyme assay, read-out: BACE1 FRET assay (IC50).
The mark [7] stands for this setting: Homo sapiens, HEK293, HEK cells, cell-based assay, read-out: HEK cell assay (IC50).
[8] abbreviates: Table 1, read-out: BACE1 FRET assay.
Where [9] appears, read: Homo sapiens, HEK293, Table 1, HEK cells, read-out: HEK cell assay.
Where [10] appears, read: Homo sapiens, HEK293, HEK cell-based assay, IC50's in uM, read-out: HEK cell assay.
Setting [11] is: BACE enzyme FRET assay, read-out: BACE1 FRET assay (IC50).
[12] abbreviates: HEK cells, cell-based assay, read-out: HEK cell assay (IC50).
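Wherever HEK cell assay (IC50) is given: compounds added as a dilution series, secreted peptide quantified by europium time-resolved fluorescence readout, potency fitted from percent of control versus compound concentration.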
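Wherever HEK cell assay is given: compounds added as a dilution series, secreted peptide quantified by europium time-resolved fluorescence readout, potency fitted from percent of control versus compound concentration.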

On to `C#Cc1cccc(C[C@H](NC(=O)[C@@H]2CCCO2)[C@H](O)CN[C@H]2CC3(CCC3)Oc3ncc(CC(C)(C)C)cc32)c1` [compound 897], for which the IC50 is 0.005 µM in data set [1] (setting [5]); 0.007 µM in data set [2] (Homo sapiens, HEK293, cell-based assay, HEK cells, IC50's in uM, read-out: HEK cell assay); 3600 nM in data set [4]. Also, in data set [3], the RLM came out at 55 µL/min/mg.
With `CO[C@H](C)C(=O)N[C@@H](Cc1ccc(F)c(Cl)c1)[C@H](O)CN[C@H]1CC2(CCC2)Oc2ncc(CC(C)(C)F)cc21` [compound 72], the IC50 in data set [1] (setting [6]) came to 0.0291 µM; in data set [2] (setting [7]) it was 0.0605 µM.
Regarding `CC(=O)N[C@@H](Cc1ccc(F)cc1)[C@H](O)CN[C@@H]1c2cc(CC(C)(C)C)cnc2OC2(CCC2)[C@@H]1F` [compound 358], the IC50 amounted to 0.0224 µM in data set [1] (setting [8]) and 0.353 µM in data set [2] (setting [9]).
As for `CC#Cc1cccc(C[C@H](NC(=O)[C@@H](C)OC)[C@H](O)CN[C@H]2CC3(CCC3)Oc3ncc(CC(C)C)cc32)c1` [compound 803], the IC50 stood at 0.022 µM in data set [1] (setting [5]) and 0.132 µM in data set [2] (setting [10]).
Turning to `COCC(=O)N[C@@H](Cc1cccc(F)c1)[C@H](O)CN[C@H]1CC2(CCC2)Oc2cnc(CC(C)(C)C)cc21` [compound 122], the IC50 amounted to 0.00754 µM in data set [1] (setting [6]) and 0.0231 µM in data set [2] (setting [7]).
Regarding `COCC(=O)N[C@@H](Cc1ccc2c(c1)OCO2)[C@H](O)CN[C@H]1CC2(CCC2)Oc2c1cc(CC(C)(C)C)nc2Cl` [compound 127, N-((1S,2R)-1-(1,3-benzodioxol-5-ylmethyl)-3-(((4′S)-8′-chloro-6′-(2,2-dimethylpropyl)-3′,4′-dihydrospiro[cyclobutane-1,2′-pyrano[2,3-c]pyridin]-4′-yl)amino)-2-hydroxypropyl)-2-(methyloxy)acetamide], the IC50 in data set [1] (setting [6]) worked out at 0.0255 µM; in data set [2] (setting [7]), 0.0678 µM.
For the compound `COCC(=O)N[C@@H](Cc1cccc(F)c1)[C@H](O)CN[C@H]1CC2(CCC2)Oc2c(-c3ccncc3)cc(CC(C)(C)F)cc21` [compound 530], the IC50 in data set [1] (BACE enzyme assay, read-out: BACE1 FRET assay) turned out to be 0.015 µM; in data set [2] (Homo sapiens, HEK293, HEK cells, read-out: HEK cell assay) it was 0.01 µM.
For the compound `CC(=O)N[C@@H](Cc1cc(F)cc(F)c1)[C@H](O)CN[C@H]1CC2(CCC2)Oc2ncc(CC(C)(C)C#N)cc21` [compound 91], the IC50 in data set [1] (setting [6]) stood at 0.00442 µM; in data set [2] (setting [7]), 0.00646 µM.
In the case of `COCC(=O)N[C@@H](Cc1ccc2c(c1)OCO2)[C@H](O)CN[C@H]1CC2(CCC2)Oc2ncc(CC(C)(C)C#N)cc21` [compound 87], the results for the IC50 in data set [1] (setting [6]) and in data set [2] (setting [7]) were 0.117 µM and 0.0828 µM, respectively.
As for `CC(C)(C)Cc1cnc2c(c1)[C@@H](NC[C@@H](O)[C@H](Cc1cccc(F)c1)NC(=O)C(Cl)Cl)CC1(CCC1)O2` [compound 105], the IC50 amounted to 0.00406 µM in data set [1] (setting [6]) and 0.0295 µM in data set [2] (setting [7]).
For `CC(=O)N[C@@H](Cc1ccc(F)cc1)[C@H](O)CN[C@H]1CC2(CCC2)Oc2c(F)cc(CC(C)(C)C)cc21` [compound 174], the IC50 in data set [1] (setting [6]) worked out at 0.0072 µM; in data set [2] (setting [7]) it was 0.0526 µM.
On to `CNc1nc(CC(C)(C)C)cc2c1OC1(CCC1)C[C@@H]2NC[C@@H](O)[C@H](Cc1ccc(F)cc1)NC(=O)[C@@H](C)OC` [compound 137], for which the IC50 is 0.082 µM in data set [1] (setting [6]) and 0.0575 µM in data set [2] (setting [7]).
With `COCC(=O)N[C@@H](Cc1ccc(F)cc1)[C@H](O)CN[C@H]1CC2(CCC2)Oc2ncc([C@H](O)C(C)(C)C)cc21` [compound 188], the IC50 in data set [1] (setting [11]) was found to be 0.0612 µM; in data set [2] (setting [7]), 1.66 µM.
For `C#CCCC(=O)N[C@@H](Cc1ccc2c(c1)OCO2)[C@H](O)CN[C@H]1CC2(CCC2)Oc2ncc(CC(C)(C)C)cc21` [compound 843], the IC50 in data set [1] (setting [5]) was found to be 0.044 µM; in data set [2] (setting [10]), 0.065 µM.
For the compound `COCC(=O)N[C@@H](Cc1ccc(Cl)cc1)[C@H](O)CN[C@H]1CC2(CCC2)Oc2ncc(CC(C)(C)C)cc21` [compound 212], the IC50 amounted to 0.00215 µM in data set [1] (setting [11]) and 0.0314 µM in data set [2] (setting [7]).
In the case of `CC(C)(C)Cc1cnc2c(c1)[C@@H](NC[C@@H](O)[C@H](Cc1ccc3c(c1)OCO3)NC(=O)C(F)(F)F)CC1(CCC1)O2` [compound 288], the IC50 in data set [1] (setting [11]) stood at 0.0539 µM; in data set [2] (setting [7]) it was 0.455 µM.
For the compound `COC(C)C(=O)NC(Cc1ccc2c(c1)OCO2)C(O)CNC1CC2(CC(O)C2)Oc2ccc(CC(C)(C)C)cc21` [compound 269, (2R)—N-((1S,2R)-1-(1,3-benzodioxol-5-ylmethyl)-3-(((2r,3′R,4S)-6-(2,2-dimethylpropyl)-3′-hydroxy-3,4-dihydrospiro[chromene-2,1′-cyclobutan]-4-yl)amino)-2-hydroxypropyl)-2-(methyloxy)propanamide], the IC50 in data set [1] (setting [11]) was found to be 0.242 µM; in data set [2] (setting [12]), 0.103 µM.
In the case of `COCC(=O)N[C@@H](Cc1ccc2c(c1)OCO2)[C@H](O)CN[C@H]1CC2(CCC2)Oc2cnc(CC(C)(C)C)cc21` [compound 119], the IC50 was 0.203 µM in data set [1] (setting [6]) and 0.127 µM in data set [2] (setting [7]).
Turning to `CC(=O)N[C@@H](Cc1cccc(F)c1)[C@H](O)CN[C@H]1CC2(CCC2)Oc2ncc(CC(C)(C)C(F)F)cc21` [compound 217], the IC50 in data set [1] (setting [11]) was determined as 0.00292 µM; in data set [2] (setting [7]), 0.00298 µM.
As to `COCC(=O)N[C@@H](Cc1ccc2c(c1)OCO2)[C@H](O)CN[C@H]1CC2(CCC2)Oc2ncc(C[C@@H](C)C(F)(F)F)cc21` [compound 341], the values for the IC50 in data set [1] (setting [8]) and in data set [2] (setting [9]) were 0.0595 µM and 0.138 µM, respectively.
Take `COC(=O)N[C@@H](Cc1ccc2c(c1)OCO2)[C@H](O)CN[C@H]1CC2(CCC2)Oc2ncc(CC(C)(C)C)cc21` [compound 289]: the IC50 is 0.0775 µM in data set [1] (setting [11]) and 0.196 µM in data set [2] (setting [7]).
Regarding `COCC(=O)N[C@@H](Cc1ccc(F)c(OC(F)(F)F)c1)[C@H](O)CN[C@H]1CC2(CCC2)Oc2ncc(CC(C)(C)C)cc21` [compound 81], the IC50 turned out to be 0.00251 µM in data set [1] (setting [6]) and 0.014 µM in data set [2] (setting [7]).
For the compound `CO[C@H](C)C(=O)N[C@@H](Cc1cccc(F)c1)[C@H](O)CN[C@H]1CC2(CCC2)Oc2ncc(CC(F)(F)F)cc21` [compound 344], the IC50 in data set [1] (setting [8]) turned out to be 0.00894 µM; in data set [2] (setting [9]), 0.0442 µM.
With `CC(=O)N[C@@H](Cc1ccc(F)cc1)[C@H](O)CN[C@H]1CC2(CCC2)Oc2c(F)cc(CC(C)(C)C#N)cc21` [compound 171], the IC50 turned out to be 0.0159 µM in data set [1] (setting [6]) and 0.0282 µM in data set [2] (setting [7]).
In the case of `COCC(=O)N[C@@H](Cc1ccc2c(c1)OCO2)[C@H](O)CN[C@H]1CC(C)(C)Cc2sc(CC(C)(C)C)cc21` [compound 187], the IC50 in data set [1] (setting [11]) was 0.0202 µM; in data set [2] (setting [7]), 0.0635 µM.
As to `COC(C)C(=O)NC(Cc1ccc2c(c1)OCO2)C(O)CNC1CC2(CC(F)C2)Oc2ncc(CC(C)(C)C)cc21` [compound 241, (2R)—N-((1S,2R)-1-(1,3-benzodioxol-5-ylmethyl)-3-(((1s,3S,4′S)-6′-(2,2-dimethylpropyl)-3-fluoro-3′,4′-dihydrospiro[cyclobutane-1,2′-pyrano[2,3-b]pyridin]-4′-yl)amino)-2-hydroxypropyl)-2-(methyloxy)propanamide], the IC50 in data set [1] (setting [11]) is 0.00628 µM; in data set [2] (setting [7]) it was 0.0336 µM.
As to `CO[C@H](C)C(=O)N[C@@H](Cc1ccc(F)cc1)[C@H](O)CN[C@H]1C[C@]2(C[C@H](O)C2)Oc2ncc(CC(C)C)cc21` [compound 250, (2R)—N-((1S,2R)-1-((4-fluorophenyl)methyl)-2-hydroxy-3-(((1s,3S,4′S)-3-hydroxy-6′-(2-methylpropyl)-3′,4′-dihydrospiro[cyclobutane-1,2′-pyrano[2,3-b]pyridin]-4′-yl)amino)propyl)-2-(methyloxy)propanamide], the IC50 in data set [1] (setting [11]) is 0.0128 µM; in data set [2] (setting [12]) it was 0.0273 µM.
Take `COCC(=O)N[C@@H](Cc1cc(F)cc(F)c1)[C@H](O)CN[C@H]1CC2(CCC2)Oc2c(-c3ccncc3)cc(CC(C)(C)F)cc21` [compound 579]: the IC50 in data set [1] (read-out: BACE1 FRET assay (IC50)) was 0.014 µM; in data set [2] (Homo sapiens, HEK293, HEK cells, read-out: HEK cell assay (IC50)) it was 0.005 µM.
In the case of `COCC(=O)N[C@@H](Cc1ccc2c(c1)OCO2)[C@H](O)CN[C@H]1CC2(CCC2)Oc2ncc(CCC(F)(F)F)cc21` [compound 195], the figures for the IC50 in data set [1] (setting [11]) and in data set [2] (setting [7]) were 0.754 µM and 0.621 µM, respectively.
Taken in the same sequence, the figures for `CC(=O)C(=O)N[C@@H](Cc1ccc2c(c1)OCO2)[C@H](O)CN[C@H]1CC2(CCC2)Oc2ncc(CC(C)(C)C)cc21` [compound 307] were 0.0313 µM and 0.0683 µM.
Consider `C=CC[C@H](NC(=O)COC)[C@H](O)CN[C@H]1CC2(CCC2)Oc2cnc(CC(C)(C)C)cc21` [compound 120], for which the IC50 in data set [1] (setting [6]) is 0.745 µM; in data set [2] (setting [7]), 0.343 µM.
Taken in the same sequence, the figures for `COC(C)C(=O)NC(Cc1ccc(F)cc1)C(O)CNC1CC2(CCC2)Oc2ncc(CC(C)(C)C)cc21` [compound 154, (2R)—N-((1S,2R)-3-(((4′S)-6′-(2,2-dimethylpropyl)-3′,4-dihydrospiro[cyclobutane-1,2′-pyrano[2,3-b]pyridin]-4′-yl)amino)-1-((4-fluorophenyl)methyl)-2-hydroxypropyl)-2-(methyloxy)propanamide] were 0.0132 µM and 0.028 µM.
On to `CC(C)(C)Cc1cnc2c(c1)[C@@H](NC[C@@H](O)[C@H](Cc1ccc(F)c(OC(F)(F)F)c1)NC(=O)C(F)(F)F)CC1(CCC1)O2` [compound 82], for which the figures for the IC50 in data set [1] (setting [6]) and in data set [2] (setting [7]) were 0.00283 µM and 0.523 µM, respectively.
As to `CC(=O)N[C@@H](Cc1cccc(F)c1)[C@H](O)CN[C@H]1CC2(CCC2)Oc2ncc(C[C@H](C)C(F)(F)F)cc21` [compound 314], the IC50 in data set [1] (setting [11]) is 0.00419 µM; in data set [2] (setting [7]) it was 0.0113 µM.
